Measured values published in patent publication US20190390161A1, “CULTURE MEDIUM COMPRISING OLIGOPEPTIDES” (Evonik Degussa GmbH, priority 2017, published 2019).
Marks after values point to notes of the source that are not given here. Bridge positions count the residues as written; N and C are the ends. Peptide text beside a SMILES is read from it. I, II: the chains in the order shown.

Key:
[1] = tested on: antibody producing Chinese Hamster Ovary (CHO) cells (Subclone DG44); experiment: Antibody production (final antibody titer) in TC-42 media; format: cell-based; settings: compared with cells cultured in reference media; 24 days (FIG. 4)
Description: FIG. 4 depicts the final antibody titer with TC-42 media obtained with oligopeptides according to the invention.
(§1) The influence of the L-lysine dipeptides on the growth of antibody producing Chinese Hamster Ovary (CHO) cells (Subclone DG44; Life Technologies Cooperation, Carslbad, USA) in comparison to media containing either the corresponding free amino acids or the corresponding L-alanine dipeptides was investigated. For this purpose, the cells were cultivated in a TC-42 media produced by Xell AG, Bielefeld, Germany in which the amino acids provided within the experiments by dipeptides were lacking. The concentrations of these amino acids were adjusted in such a way that, taking into account a complete hydrolysis of the dipeptides into the amino acids, the concentration of all amino acids were the same in all media tested within this experiment.
Additionally, the effect on antibody production was analysed comparing cells cultured in reference media and cells growing in a media containing the dipeptides bis-alanyl-L-cystine or […] for 24 days (FIG. 4).

[2] = Solubility found for Lys-Xxx dipeptides; settings: for Solubility Lys-Xxx found: as hydrochloride or as acetate (footnotes 6, 7)
[3] = tested on: antibody producing Chinese Hamster Ovary (CHO) cells (Subclone DG44); experiment: Experiment 1: cell growth (VCD) in TC-42 media, cysteine/cystine or leucine replaced by dipeptides; format: cell-based; set-up: Viable cell densities (VCD) / maximum cell densities (max. VCD): unit not given here; settings: for maximum cell densities (max. VCD) / Viable cell densities (VCD): TC-42 media of table 2; for cell growth performance compared with reference medium (FIG. 1): same molar amount of cysteine and cystine in the form of dipeptides
Description: as §1, with “experiment. […] Experiment 1: Comparison of the Cell Growths Obtained with TC-42 media in which L-cysteine/L-cystine is replaced by bis-L-alanyl-L-cystine, bis-L-prolyl-L-cystine or bis-L-lysyl-L-cystine and L-leucine is replaced by […] For this experiment a TC-42 media produced by Xell AG, Bielefeld, Germany in which […]-cystine and L-leucine were deliberately left out of the initial formulation. […] [table]” for “experiment.”

[4] = target: plasmin (Homo sapiens, UniProt P00747); settings: Chemical & Pharmaceutical Bulletin 22, 2680 (1974); cited from earlier work
plasmin, sequence (P00747 581-810 limits assumed, species assumed): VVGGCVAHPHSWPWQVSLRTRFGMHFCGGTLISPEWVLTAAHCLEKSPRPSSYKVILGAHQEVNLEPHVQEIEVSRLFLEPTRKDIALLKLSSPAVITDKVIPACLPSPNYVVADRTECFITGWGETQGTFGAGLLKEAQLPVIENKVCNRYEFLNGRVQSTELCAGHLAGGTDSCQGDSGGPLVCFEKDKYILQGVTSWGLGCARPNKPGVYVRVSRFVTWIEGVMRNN
plasmin, sequence (P00747 97-580 partner limits assumed, species assumed): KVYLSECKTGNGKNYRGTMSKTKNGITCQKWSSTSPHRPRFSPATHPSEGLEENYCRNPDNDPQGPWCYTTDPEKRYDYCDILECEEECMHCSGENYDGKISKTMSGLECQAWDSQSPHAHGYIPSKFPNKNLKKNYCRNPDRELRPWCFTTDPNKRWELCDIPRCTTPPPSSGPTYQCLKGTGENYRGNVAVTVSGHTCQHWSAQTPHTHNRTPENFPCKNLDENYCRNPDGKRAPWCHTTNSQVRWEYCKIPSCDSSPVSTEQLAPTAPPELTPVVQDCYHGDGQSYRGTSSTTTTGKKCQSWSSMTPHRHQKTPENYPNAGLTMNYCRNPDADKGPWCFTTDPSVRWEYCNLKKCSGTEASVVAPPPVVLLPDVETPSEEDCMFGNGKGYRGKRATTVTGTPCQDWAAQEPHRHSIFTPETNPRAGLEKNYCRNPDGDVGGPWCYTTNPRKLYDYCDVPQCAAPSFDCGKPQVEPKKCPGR

[5] = cited from earlier work

| Compound | maximum cell densities (max. VCD) [3] | Viable cell densities (VCD) ([3]; Time 0.0) | Viable cell densities (VCD) ([3]; Time 0.7) | Viable cell densities (VCD) ([3]; Time 2.0) | Viable cell densities (VCD) ([3]; Time 2.7) | Viable cell densities (VCD) ([3]; Time 3.6) | Viable cell densities (VCD) ([3]; Time 3.7) | Viable cell densities (VCD) ([3]; Time 4.7) | Viable cell densities (VCD) ([3]; Time 5.8) | Viable cell densities (VCD) ([3]; Time 6.7) | Viable cell densities (VCD) ([3]; Time 6.8) | Viable cell densities (VCD) ([3]; Time 7.8) | Viable cell densities (VCD) ([3]; Time 8.7) | Viable cell densities (VCD) ([3]; Time 9.7) | Viable cell densities (VCD) ([3]; Time 10.6) | Viable cell densities (VCD) ([3]; Time 11.6) | Viable cell densities (VCD) ([3]; Time 12.8) | Viable cell densities (VCD) ([3]; Time 13.6) | Viable cell densities (VCD) ([3]; Time 15.0) | Viable cell densities (VCD) ([3]; Time 15.9) | other results |
| --- | --- | --- | --- | --- | --- | --- | --- | --- | --- | --- | --- | --- | --- | --- | --- | --- | --- | --- | --- | --- | --- |
| NCCCC[C@H](N)C(=O)N[C@@H](CSSC[C@H](NC(=O)[C@@H](N)CCCCN)C(=O)O)C(=O)O [Lys2-Cyss, Bis-L-lysyl-L-cystine × 4HCl] (I: H-Lys-Cys-OH / II: H-Lys-Cys-OH; disulfide I:2-II:2) | 14.16 | 0.31 | 0.39 | 0.54 | 0.83 | 1.02 | 0.39 | 0.62 | 1.18 | 1.98 | 0.30 | 0.43 | 0.98 | 1.82 | 2.88 | 4.75 | 6.68 | 9.20 | 11.93 | 13.66 | antibody production increased by [1]: ~50%; Solubility Lys-Xxx found [2]: >500 ^6) g/1000 g solution; solubility found ([2]; hydrochloride): > 50 % (w/w); Viable cell densities (VCD) ([3]; Time 16.7): 13.41; Viable cell densities (VCD) ([3]; Time 17.8): 14.16; Viable cell densities (VCD) ([3]; Time 18.7): 14.15; cell growth performance compared with reference medium (FIG. 1) [3]: performance comparable to bis-alanyl-L-cystine |
| CC(=O)O.CC(C)C[C@H](NC(=O)[C@@H](N)CCCCN)C(=O)O [Lys-Leu, L-Lysyl-L-leucine acetat] (H-Lys-Leu-OH) | 12.43 | 0.33 | 0.39 | 0.59 | 0.81 | 0.92 | 0.34 | 0.56 | 0.94 | 1.40 | 0.30 | 0.45 | 0.79 | 1.24 | 1.81 | 2.38 | 3.12 | 3.66 | 4.52 | 5.47 | Solubility Lys-Xxx found [2]: >330 ^7) g/1000 g solution; Viable cell densities (VCD) ([3]; Time 16.7): 6.10; Viable cell densities (VCD) ([3]; Time 17.8): 6.03; Viable cell densities (VCD) ([3]; Time 18.7): 7.23; Viable cell densities (VCD) ([3]; Time 19.9): 10.51; Viable cell densities (VCD) ([3]; Time 20.7): 12.43; Viable cell densities (VCD) ([3]; Time 21.8): 12.15; Viable cell densities (VCD) ([3]; Time 22.8): 11.82; cleavage (hydrolysis) by plasmin [4]: none of these peptides were cleaved |
| Bis-L-alanyl-L-cystine [Ala2-Cyss, reference compound] | 15.06 | 0.26 | 0.42 | 0.47 | 0.67 | 0.84 | 0.36 | 0.71 | 1.52 | 2.34 | 0.32 | 0.48 | 1.06 | 1.79 | 3.19 | 4.89 | 7.65 | 10.01 | 11.62 | 15.06 | Solubility Ala-Xxx ([5]; Degussa product brochure, cystine value WO 2011/133902): 8.7 ^2) g/1000 g solution; solubility ([5]; prior art values, background): 15.3 g/ltr; antibody production increased by [1]: at least 30%; Viable cell densities (VCD) ([3]; Time 16.7): 14.38; Viable cell densities (VCD) ([3]; Time 17.8): 14.05; Viable cell densities (VCD) ([3]; Time 18.7): 14.28; cell growth performance compared with reference medium (FIG. 1) [3]: the cells were able to utilize the peptides for growth |
| Lys-Lys [reference compound] | – | – | – | – | – | – | – | – | – | – | – | – | – | – | – | – | – | – | – | – | cleavage (hydrolysis) by plasmin [4]: none of these peptides were cleaved |
